# Laboratory results published in patent US12024707B2, “Methods and compositions for modulating lncRNAs and methods of treatment based on lncRNA expression” (Washington University, priority 2020, dated 2024).
# Counter-ions that a name gives are not always drawn.
# System: HT29 RAMS11 overexpressing cells
# Assay: High-throughput viability assay (resazurin), 119 FDA-approved anticancer drugs, RAMS11 overexpressing cells (Clone1, Clone2)
# Conditions: 72 h, vs empty vector control
# [1] = OE1 (RAMS11 overexpression clone 1), 0.1 uM drug
# [2] = OE1 (RAMS11 overexpression clone 1), 1 uM drug
# [3] = OE1 (RAMS11 overexpression clone 1), 10 uM drug
# [4] = OE2 (RAMS11 overexpression clone 2), 0.1 uM drug
# [5] = OE2 (RAMS11 overexpression clone 2), 1 uM drug
# [6] = OE2 (RAMS11 overexpression clone 2), 10 uM drug
SMILES,Viability Fold Change [1],Viability Fold Change [2],Viability Fold Change [3],Viability Fold Change [4],Viability Fold Change [5],Viability Fold Change [6]
C=C1C[C@@H]2[C@H](CC[C@]3(C)C(=O)CC[C@@H]23)[C@@]2(C)C=CC(=O)C=C12 [Exemestane],0.8651,0.981,0.9176,1.047,1.008,1.06
Nc1nc(F)nc2c1ncn2[C@@H]1O[C@H](CO)[C@@H](O)[C@@H]1O [Fludarabine],0.869,0.9921,1.056,0.973,1.069,1.073
C[C@]12CC[C@@H]3c4ccc(O)cc4C[C@@H](CCCCCCCCC[S+]([O-])CCCC(F)(F)C(F)(F)F)[C@H]3[C@@H]1CC[C@@H]2O (stereo partly drawn) [Fulvestrant],1.048,1.037,1.135,1.088,1.089,1.036
COc1cc2ncnc(Nc3ccc(F)c(Cl)c3)c2cc1OCCCN1CCOCC1 [Gefitinib],0.9453,1.164,1.468,0.9436,1.227,1.392
NC(=O)NO [Hydroxyurea],0.9496,0.9632,0.9723,0.9871,1.074,0.9675
CC(=O)[C@]1(O)Cc2c(O)c3c(c(O)c2[C@@H](O[C@H]2C[C@H](N)[C@H](O)[C@H](C)O2)C1)C(=O)c1ccccc1C3=O [Idarubicin hydrochloride],1.365,1.73,3.603,1.573,1.623,3.696
CC[C@H](Nc1ncnc2[nH]cnc12)c1nc2cccc(F)c2c(=O)n1-c1ccccc1 [Idelalisib],0.9092,0.8875,0.9111,0.9773,0.8852,0.8746
O=P1(NCCCl)OCCCN1CCCl (stereo not drawn) [Ifosfamide],0.9167,1.025,0.9724,0.9226,1.055,1.058
CC(C)Cn1cnc2c(N)nc3ccccc3c21 [Imiquimod],1.048,1.101,1.03,1.037,1.138,0.9752
CCc1c2c(nc3ccc(OC(=O)N4CCC(N5CCCCC5)CC4)cc13)-c1cc3c(c(=O)n1C2)COC(=O)[C@]3(O)CC [Irinotecan HCl],0.9198,0.9608,1.151,0.9682,0.9711,1.068
C/C(=C\c1csc(C)n1)[C@@H]1C[C@@H]2O[C@]2(C)CCC[C@H](C)[C@H](O)[C@@H](C)C(=O)C(C)(C)[C@@H](O)CC(=O)N1 [Ixabepilone],1.657,1.943,1.722,1.773,2.017,2.056
CS(=O)(=O)CCNCc1ccc(-c2ccc3ncnc(Nc4ccc(OCc5cccc(F)c5)c(Cl)c4)c3c2)o1 [Lapatinib],1.034,1.269,1.357,1.216,1.285,1.391
Nc1cccc2c1CN(C1CCC(=O)NC1=O)C2=O (stereo not drawn) [Lenalidomide],0.9659,1.021,0.9664,0.9115,1.009,0.8902
N#Cc1ccc(C(c2ccc(C#N)cc2)n2cncn2)cc1 [Letrozole],0.9923,0.9536,0.9791,0.9454,1.057,0.8412
O=NN(CCCl)C(=O)NC1CCCCC1 [Lomustine],0.9969,1.03,1.027,0.991,1.111,0.9646
CC(=O)O[C@]1(C(C)=O)CC[C@H]2[C@@H]3C=C(C)C4=CC(=O)CC[C@]4(C)[C@H]3CC[C@@]21C [Megestrol acetate],0.8922,1.034,0.9961,0.8949,0.9578,0.9016
N[C@@H](Cc1ccc(N(CCCl)CCCl)cc1)C(=O)O [Melphalan],0.9214,1.006,0.9782,0.9479,1.068,0.9942
S=c1nc[nH]c2nc[nH]c12 [Mercaptopurine],0.964,0.9982,1.006,0.9412,1.029,1.05
CN(Cc1cnc2nc(N)nc(N)c2n1)c1ccc(C(=O)N[C@@H](CCC(=O)O)C(=O)O)cc1 [Methotrexate],0.9199,0.5578,1.197,0.9143,0.5752,1.137
COc1c2occc2cc2ccc(=O)oc12 [Methoxsalen],0.9521,0.971,0.7883,0.8888,0.9485,0.9406
CO[C@@]12[C@H](COC(N)=O)C3=C(C(=O)C(C)=C(N)C3=O)N1C[C@@H]1N[C@@H]12 [Mitomycin],0.9668,1.547,2.416,1.006,1.624,2.004
Clc1ccc(C(c2ccccc2Cl)C(Cl)Cl)cc1 (stereo not drawn) [Mitotane],0.8185,0.9667,0.9105,0.9482,0.9714,0.987
O=C1c2c(O)ccc(O)c2C(=O)c2c(NCCNCCO)ccc(NCCNCCO)c21 [Mitoxantrone],1.145,1.451,1.375,1.105,1.432,1.508
COc1nc(N)nc2c1ncn2[C@@H]1O[C@H](CO)[C@@H](O)[C@@H]1O [Nelarabine],0.9819,1.033,0.9555,0.9462,1.007,0.9701
Cc1cn(-c2cc(NC(=O)c3ccc(C)c(Nc4nccc(-c5cccnc5)n4)c3)cc(C(F)(F)F)c2)cn1 [Nilotinib],0.8679,0.749,0.7379,1.013,0.888,0.7462
O=C(c1cc(Cc2n[nH]c(=O)c3ccccc23)ccc1F)N1CCN(C(=O)C2CC2)CC1 [Olaparib],0.8162,0.9061,1,0.9035,0.952,0.9733
COC(=O)C[C@](O)(CCCC(C)(C)O)C(=O)O[C@@H]1C(OC)=C[C@]23CCCN2CCc2cc4c(cc2[C@H]13)OCO4 [Omacetaxine mepesuccinate],1.354,1.614,1.606,1.376,1.468,1.436
CC(=O)O[C@H]1C(=O)[C@@]2(C)[C@H]([C@H](OC(=O)c3ccccc3)[C@]3(O)C[C@H](OC(=O)[C@H](O)[C@@H](NC(=O)c4ccccc4)c4ccccc4)C(C)=C1C3(C)C)[C@]1(OC(C)=O)CO[C@@H]1C[C@@H]2O [Paclitaxel],2.775,3.5,3.241,2.662,3.065,3.061
Cc1ccc(Nc2nccc(N(C)c3ccc4c(C)n(C)nc4c3)n2)cc1S(N)(=O)=O [Pazopanib hydrochloride],0.8743,0.7793,0.8633,0.9409,0.9056,0.9152
Nc1nc2[nH]cc(CCc3ccc(C(=O)N[C@@H](CCC(=O)O)C(=O)O)cc3)c2c(=O)[nH]1 [Pemetrexed disodium salt],0.9118,0.9424,1.886,0.9953,0.9455,1.933
